In brackets after ≈: the same amount, converted by molar mass. Activity calls are given as the source filed them. No cut-off for these calls is given here.
What was measured:
[1] = test system: THP-1; assay: Immunostimulatory activity in human THP1 cells assessed as LPS-induced NF-kappaB activation at =< 50 ug/mL by luciferase reporter gene assay; assay type: functional, cell-based
[2] = test system: Plasmodium berghei; assay: Antimalarial activity as parasitaemia against Plasmodium berghei ANKA infected Swiss albino mice (Mus musculus) at 100 uM/kg intraperitoneal dose after 3 days; assay type: functional
[3] = test system: Mycobacterium tuberculosis; assay: Antitubercular activity against Mycobacterium tuberculosis; assay type: functional
[4] = test system: Plasmodium falciparum; assay: Antimalarial activity against Plasmodium falciparum D6; assay type: functional, organism-based
[5] = test system: Toxoplasma gondii; assay: Antiparasitic activity against Toxoplasma gondii RH infected in mouse L929 cells assessed as [3H]uracil incorporation at 1 uM after 72 hrs by scintillation counting; assay type: functional
[6] = test system: Hepatitis B virus; assay: Antiviral activity against Hepatitis B virus cell culture assay; assay type: functional, organism-based
[7] = test system: Human immunodeficiency virus; assay: Antiviral activity against Human immunodeficiency virus; assay type: functional, organism-based; conditions: Human immunodeficiency virus 1
[8] = test system: Pseudomonas aeruginosa; assay: Antibacterial activity against Pseudomonas aeruginosa; assay type: functional, organism-based
[9] = test system: Mycobacterium intracellulare; assay: Antibacterial activity against Mycobacterium intracellular; assay type: functional, organism-based
[10] = test system: Cryptococcus neoformans; assay: Antifungal activity against Cryptococcus neoformans; assay type: functional, organism-based
[11] = test system: A549; assay: Cytotoxicity against human A549 cells by alamar blue assay; assay type: functional, cell-based
[12] = test system: Staphylococcus aureus; assay: Antibacterial activity against methicillin-resistant Staphylococcus aureus; assay type: functional, organism-based
[13] = test system: Plasmodium falciparum; assay: Antimalarial activity against chloroquine-resistant Plasmodium falciparum W2; assay type: functional, organism-based
[14] = test system: HT-29; assay: Cytotoxicity against human HT-29 cells by alamar blue assay; assay type: functional, cell-based
[15] = test system: Mycobacterium tuberculosis; assay: Antitubercular activity against Mycobacterium tuberculosis at 6.25 ug/mL; assay type: functional
[16] = test system: Aspergillus fumigatus; assay: Antifungal activity against Aspergillus fumigatus; assay type: functional, organism-based
[17] = test system: Staphylococcus aureus; assay: Antibacterial activity against Staphylococcus aureus; assay type: functional, organism-based
[18] = test system: SK-MEL-28; assay: Cytotoxicity against human SK-MEL-28 cells by alamar blue assay; assay type: functional, cell-based
[19] = test system: Candida albicans; assay: Antifungal activity against Candida albicans; assay type: functional, organism-based
[20] = test system: P388; assay: Cytotoxicity against mouse P388 cells by alamar blue assay; assay type: functional, cell-based
[21] = test system: Plasmodium berghei; assay: Antimalarial activity against Plasmodium berghei ANKA infected Swiss albino mice (Mus musculus) intraperitoneal dose over 3 days; assay type: functional, organism-based
[22] = test system: Plasmodium berghei; assay: Antimalarial activity as increased survival against Plasmodium berghei ANKA infected Swiss albino mice (Mus musculus) at 100 uM/kg intraperitoneal dose; assay type: functional, organism-based

For Cc1cc2c(cc1Br)[C@]1(C)CC[C@](C)(CO2)[C@@H]1C, the Activity [1] was “inactive”.

For CCN(CC)CCCC(C)Nc1ccnc2cc(Cl)ccc12 (stereo not given) [CHLOROQUINE], the Activity [2] was 0.1%.

In the case of CO[C@H]1/C=C/O[C@@]2(C)Oc3c(C)c(O)c4c(O)c(c(/C=N/N5CCN(C)CC5)c(O)c4c3C2=O)NC(=O)/C(C)=C\C=C\[C@H](C)[C@H](O)[C@@H](C)[C@@H](O)[C@@H](C)[C@H](OC(C)=O)[C@@H]1C [RIFAMPIN], the MIC [3] is reported as 0.25 µg/mL (≈ 0.304 µM).

Work on C[C@@H]1CC[C@H]2[C@@H](C)C(=O)O[C@@H]3O[C@@]4(C)CC[C@@H]1[C@]32OO4 [ARTEMISININ] yielded an Activity [2] of 35.9% and an IC50 [4] of 0.012 µg/mL (≈ 0.0425 µM).

Compound O=C1C(O)=C([C@H]2CC[C@H](c3ccc(Cl)cc3)CC2)C(=O)c2ccccc21 [ATOVAQUONE] has an inhibition at 1 µM [5] of 100%.

In the case of Nc1ccn([C@@H]2CS[C@H](CO)O2)c(=O)n1 [LAMIVUDINE], the EC50 [6] is reported as 0.062 µg/mL (≈ 0.27 µM).

For Cc1cn([C@H]2C[C@H](N=[N+]=[N-])[C@@H](CO)O2)c(=O)[nH]c1=O [ZIDOVUDINE], the EC50 [7] was 0.004 µM.

CC/C=C/[C@H](CC)CCC[C@@]1(CC)C=C(CC)C(=O)O1 [PLAKORTONE G] was tested, and the EC50 [6] was > 100 µg/mL, the Activity [8] was “inactive” and the Activity [9] was “inactive”. For the same compound, the Activity [10] was “inactive”, the IC50 [11] was > 1 µg/mL and the Activity [12] was “inactive”. The IC50 [4] was 4.2 µg/mL (≈ 15.1 µM), the IC50 [13] was > 4.76 µg/mL and the IC50 [14] was > 1 µg/mL. The inhibition at 6.25 µg/mL [15] was 4%, the Activity [16] was “inactive” and the Activity [17] was “inactive”. The IC50 [18] was > 10 µg/mL and the Activity [19] was “inactive”.

With CC/C(=C(\c1ccccc1)c1ccc(OCCN(C)C)cc1)c1ccccc1 [TAMOXIFEN] the IC50 [11] was 1.86 µg/mL (≈ 5.01 µM), the IC50 [14] was 1.86 µg/mL (≈ 5.01 µM) and the IC50 [18] was 1.86 µg/mL (≈ 5.01 µM).

In the case of CC/C=C/C(CC)CCC[C@@]1(CC)C[C@H](CC)[C@H](CC(=O)OC)OO1 (stereo not given in full) [PLAKORTIDE F], the EC50 [6] is reported as > 100 µg/mL, the IC50 [20] is reported as 1.25 µg/mL (≈ 3.53 µM) and the Activity [8] is reported as “inactive”. For the same compound, the EC50 [7] was 13 µM, the Activity [9] was “inactive” and the inhibition at 1 µM [5] was 67%. The IC50 [21] was “Not Active”, the Activity [10] was “inactive” and the IC50 [11] was 2.5 µg/mL (≈ 7.05 µM). The Activity [2] was “inactive”, the Activity [22] was “inactive” and the Activity [12] was “inactive”. It also gave an IC50 [4] of 0.48 µg/mL (≈ 1.35 µM), an IC50 [13] of 0.39 µg/mL (≈ 1.1 µM) and an IC50 [14] of 1.25 µg/mL (≈ 3.53 µM). The inhibition at 6.25 µg/mL [15] was 29%, the Activity [16] was “inactive” and the Activity [17] was “inactive”. The IC50 [18] was 2.5 µg/mL (≈ 7.05 µM) and the Activity [19] was “inactive”.

Reference: ChEMBL document CHEMBL1156383, “Isolation and biological evaluation of filiformin, plakortide F, and plakortone G from the Caribbean sponge Plakortis sp” (J Nat Prod, 2001)
